US10658848B2, “Materials for use with aqueous redox flow batteries and related methods and systems” (Massachusetts Institute of Technology, priority 2014, dated 2020)
Values after ≈ are worked out from the molar mass of the structure shown. Like-named read-outs stand apart in the source and are kept apart here.

Experiments:
Format in all cases: physicochemical
[1] = Quantitative CV and rotating disk voltammetry with numerical fitting (Randles-Sevcik, Levich); details: for DO, diffusion coefficient for quinoxaline / DR, diffusion coefficient for the reduced species / α, transfer coefficient for the reduction (forward) reaction: 295 K; for number of electrons transferred, n: ± 95% confidence interval
Source text: A set of quantitative experiments were designed to calculate the number of electrons transferred, diffusion coefficients, and transfer coefficients using the Randles-Sevcik equation for irreversible CVs (Eq. (E1)) and the Levich equation (Eq. (E2)). In Eq. (E1), ip is the peak current, n is the number of electrons transferred, α is the transfer coefficient, A is the electrode surface area, F is Faraday's constant, C is the reactant concentration, s is the scan rate, R is the universal gas constant, T is temperature, and D is the diffusion coefficient (e.g., see Compton et al. Understanding Voltammetry, 2nd ed., Imperial College Press, London, 2011). Additionally, in Eq. (E2), iL is the RDV limiting current, ω is the electrode rotation rate, and v is the kinematic viscosity (e.g., see Bard et al. Electrochemical Methods: Fundamentals and Applications, John Wiley & Sons, Danvers, 2001). Kinematic viscosities were determined from dynamic viscosities, which were interpolated from tables by Zaytsev and […] et al. Properties of Aqueous Solutions of Electrolytes, 1st ed., CRC Press, Boca Raton, 1992), and electrolyte densities, which were measured using a balance and known solution volume. All remaining variables are constants or were determined by the experimental design. Quantitative CV and RDV experiments were carried out in a water-jacketed three-electrode cell. Chilled water at a temperature of 295 K (22° C.) was continuously passed through the water jacket in order to maintain a constant temperature throughout the experiment. A rotating disk electrode with a 0.5 cm diameter glassy carbon electrode (0.196 cm^2) was used as a working electrode. A coiled Pt wire used as a counter electrode was housed in a glass compartment that was separated from the main chamber by a porous frit. Both chambers were filled with the same bulk electrolyte. The reference electrode was a double junction Ag/AgCl (10% KNO3), which had been calibrated against a commercially available reversible hydrogen electrode (BAS Inc.) in 1 M NaHCO3 solution by measuring OCV between the two electrodes. All cell components were purchased from Pine Instruments Co., including the rotator and motor used in RDV experiments. Cells were filled with 80 mL of solution, and the solution was bubbled with argon using a porous glass frit at a rate of 50 mL/min for 1 h before taking any electrochemical measurements. After 1 h, the argon gas bubbling stream was switched to an argon gas blanket above the solution. Three cycles of CV, with a stationary electrode, were recorded at each of the following scan rates: 5, 10, 20, 50, and 100 mV/s. Between CV and RDV experiments, the glassy carbon electrode was re-polished before beginning RDV experiments. […] Quantitative voltammetry experiments were performed in triplicate using freshly prepared solution and freshly polished glassy carbon electrodes for each trial. CV experiments were performed at five different scan rates, and RDV experiments were performed at five different rotation speeds for each electrolyte of interest. The aim of these experiments was to determine the number of electrons transferred during a quinoxaline redox reaction, the diffusion coefficients of quinoxaline and its reduced species in each electrolyte, and the transfer coefficients of the redox reactions. FIG. 5a-e and FIG. 6a-e display the third cycle of typical CV data at different scan rates and the second cathodic scan of typical RDV data at different rotation rates, respectively. In order to quantitatively determine the number of electrons transferred, a numerical fitting technique was employed. Among the irreversible Randles-Sevcik (Eq. (E1)) and Levich (Eq. (E2)) equations, there are four unknown variables: the number of electrons transferred, n, two diffusion coefficients, DO/DR, and the transfer coefficient, α. […]

[2] = Solubility limit of quinoxaline in electrolytes and DI H2O; details: thermodynamic from solid
Description: The solubility limit (at room temperature) of quinoxaline in several electrolytes and DI H2O was estimated using the following method. Scintillation vials were filled with a known volume of electrolyte, and quinoxaline was added in 0.5 M increments. The vials were then vortex sonicated for ˜5 min between quinoxaline additions. Once no more quinoxaline could be dissolved into the vial, the solubility limit was recorded. This method was accurate to the lowest 0.5 M concentration, and solution volume changes due to quinoxaline addition were not considered.

[3] = Repeated CV cycling of 5 mM quinoxaline in 1 M potassium chloride
Description: Electrochemical experiments were carried out using other electrolytes.

[4] = 0.45M K2SO4/0.1M KOH, pH 12.9, n=2 fixed
[5] = 0.495M K2SO4/0.01M KOH, pH 11.8, n=2 fixed
[6] = 0.9M KCl/0.1M KOH, pH 12.9, n=2 fixed
[7] = 0.99M KCl/0.01M KOH, pH 11.8, n=2 fixed

c1ccc2nccnc2c1 [quinoxaline]
DO, diffusion coefficient for quinoxaline [1, 4]: 7.3 ± 1.7 10^−6 cm^2/s | DR, diffusion coefficient for the reduced species [1, 4]: 4.4 ± 0.4 10^−6 cm^2/s | α, transfer coefficient for the reduction (forward) reaction [1, 4]: 0.60 ± 0.00 | number of electrons transferred, n ([1]; 0.45M K2SO4/0.1M KOH, pH 12.9): 2.54 ± 0.43 | DO, diffusion coefficient for quinoxaline [1, 5]: 6.4 ± 0.7 10^−6 cm^2/s | DR, diffusion coefficient for the reduced species [1, 5]: 4.8 ± 1.0 10^−6 cm^2/s | α, transfer coefficient for the reduction (forward) reaction [1, 5]: 0.59 ± 0.00 | number of electrons transferred, n ([1]; 0.495M K2SO4/0.01M KOH, pH 11.8): 2.26 ± 0.33 | DO, diffusion coefficient for quinoxaline [1, 6]: 6.7 ± 0.4 10^−6 cm^2/s | DR, diffusion coefficient for the reduced species [1, 6]: 5.9 ± 1.0 10^−6 cm^2/s | α, transfer coefficient for the reduction (forward) reaction [1, 6]: 0.62 ± 0.02 | number of electrons transferred, n ([1]; 0.9M KCl/0.1M KOH, pH 12.9): 2.90 ± 0.03 | DO, diffusion coefficient for quinoxaline [1, 7]: 6.0 ± 0.6 10^−6 cm^2/s | DR, diffusion coefficient for the reduced species [1, 7]: 4.9 ± 2.2 10^−6 cm^2/s | α, transfer coefficient for the reduction (forward) reaction [1, 7]: 0.59 ± 0.04 | number of electrons transferred, n ([1]; 0.99M KCl/0.01M KOH, pH 11.8): 1.89 ± 0.21 | DO, diffusion coefficient for quinoxaline ([1]; 1M KOH, pH 13.7, n=2 fixed): 5.8 ± 0.9 10^−6 cm^2/s | DR, diffusion coefficient for the reduced species ([1]; 1M KOH, pH 13.7, n=2 fixed): 4.0 ± 1.7 10^−6 cm^2/s | α, transfer coefficient for the reduction (forward) reaction ([1]; 1M KOH, pH 13.7, n=2 fixed): 0.60 ± 0.05 | number of electrons transferred, n ([1]; 1M KOH, pH 13.7): 2.34 ± 0.72 | diffusion coefficient of quinoxaline relative to the reduced species ([1]; in each electrolyte of Table E3): 1.1-1.7 × | mean calculated value for n (navg) ([1]; mean over the electrolytes in Table E2): 2.34 | transfer coefficient α for the forward reaction ([1]; overall, n=2 fixed): ≈ 0.6 | number of electrons transferred, n, rounded to nearest integer ([1]; rounded from navg): 2 | theoretical capacity ([1]; two-electron transfer process): 410 mAh/g | solubility ([2]; 0.45 M K2SO4/0.1 M KOH electrolyte, aqueous buffer, 0.45M K2SO4/0.1M KOH, pH 12.9, room temperature, three phase separation, read-out: Solubility Limit): 500 mM (≈ 65.1 mg/mL) | solubility ([2]; 0.495 M K2SO4/0.01 M KOH electrolyte, aqueous buffer, 0.495M K2SO4/0.01M KOH, pH 11.8, room temperature, three phase separation, read-out: Solubility Limit): 500 mM (≈ 65.1 mg/mL) | solubility ([2]; 0.9 M KCl/0.1 M KOH electrolyte, aqueous buffer, 0.9M KCl/0.1M KOH, pH 12.9, room temperature, bed of small crystals, read-out: Solubility Limit): 4000 mM (≈ 521 mg/mL) | solubility ([2]; 0.99 M KCl/0.01 M KOH electrolyte, aqueous buffer, 0.99M KCl/0.01M KOH, pH 11.8, room temperature, bed of small crystals, read-out: Solubility Limit): 4000 mM (≈ 521 mg/mL) | solubility ([2]; 1 M KOH electrolyte, aqueous buffer, 1M KOH, pH 13.7, room temperature, dendritic precipitation of crystals, read-out: Solubility Limit): 500 mM (≈ 65.1 mg/mL) | solubility ([2]; aqueous electrolytes containing K2SO4 or only KOH, aqueous buffer, read-out: solubility of quinoxaline): ≤ 500 mM | solubility ([2]; solutions containing KCl, aqueous buffer, read-out: solubility of quinoxaline): ≤ 4000 mM | solubility ([2]; water, DI H2O, pH 7.0, room temperature, bed of small crystals, read-out: Solubility Limit): 4500 mM (≈ 586 mg/mL) | peak currents on repeated cycling ([3]; 5 mM quinoxaline in 1 M potassium chloride with 10 mM potassium hydroxide): no decrease in peak currents was observed after 100 or 200 cycles | cathodic and anodic currents on repeated cycling ([3]; 5 mM quinoxaline in 1 M potassium chloride, no added base, glassy carbon electrode): decreased with repeated cycling
